Results from patent US11767305B2, “Advantageous benzofuran compositions for mental disorders or enhancement” (Tactogen Inc, priority 2020, dated 2023).
pIC50: −log10 of the molar value.

What was measured:
[1] = biological target: Nicotinic Acetylcholine Receptor α4β2 (nAchRa4/b2) (Homo sapiens (Human), UniProt P17787+P43681); assay: Nicotinic acetylcholine receptor α4β2 ion channel blocking assay; type: cell-based
Protocol: Cell lines were expanded from freezer stocks according to standard procedures. Cells were seeded in a total volume of 20 μL into black-walled, clear-bottom, Poly-D-lysine coated 384-well microplates and incubated at 37° C. for the appropriate time prior to testing.
Assays were performed in 1×Dye Loading Buffer consisting of 1×Dye, and 2.5 mM freshly-prepared Probenecid when applicable.
Test compounds were assayed at 10 concentrations with the highest concentration either 30 or 10 μM and subsequent concentrations using a 0.33 dilution factor.
Prior to testing, cells were loaded with dye then incubated for 30-60 minutes at 37° C. For antagonist determination, cells were pre-incubated with sample. Dihydro-β-erythroidine was used as a positive control. Intermediate dilution of sample stocks was performed to generate 2-5×sample in assay buffer.
After dye loading, cells were moved from the incubator and 10-25 μL 2-5×sample was added to cells in the presence of EC80 agonist when appropriate. Cells were incubated for 30 minutes at room temperature in the dark to equilibrate plate temperature. Vehicle concentration was 1%.
Compound activity was measured on a FLIPRTetra(MDS) and analyzed using CBIS data analysis suite (ChemInnovation, CA). Percentage inhibition was calculated using the following formula: % Inhibition=100%×(1−(mean RLU of test sample−mean RLU of vehicle control)/(mean RLU of EC80 control−mean RLU of vehicle control)).

5-HT1BR = 5-HT1BR (Homo sapiens (Human), UniProt P28222); assay: 5-HT1BR cAMP secondary messenger agonist assay (HitHunter, CHO-K1); type: cell-based
From the text: The 5-HT1BR cAMP secondary messenger agonist assay used a panel of CHO-K1 cell lines stably expressing non-tagged GPCRs that endogenously signal through cAMP. Hit Hunter® cAMP assays monitored the activation of a GPCR via Gi and Gs secondary messenger signaling in a homogenous, non-imaging assay format using DiscoverX Enzyme Fragment Complementation (EFC) with β-galactosidase as the functional endpoint.
The enzyme was split into two complementary portions: Enzyme Acceptor (EA) and Enzyme Donor (ED). Exogenously introduced ED fused to cAMP (ED-cAMP) competed with endogenously generated cAMP for binding to an anti-cAMP-specific antibody. Active β-galactosidase was formed by complementation of exogenous EA to any unbound ED-cAMP.
Cell lines were expanded from freezer stocks according to standard procedures. Cells were seeded in a total volume of 20 μL into white walled, 384-well microplates and incubated at 37° C. for the appropriate time prior to testing. cAMP modulation was determined using the DiscoverX HitHunter cAMP XS+ assay.
For agonist determination, cells were incubated with sample (in the presence of EC80 forskolin to induce response if measuring Gi secondary messenger signaling). Media was aspirated from cells and replaced with 15 μL 2:1 HBSS/10 mM Hepes:cAMP XS+ Ab reagent. Intermediate dilution of sample stocks was performed to generate 4×sample in assay buffer (optionally containing 4×EC80 forskolin). 5 μL of 4×sample was added to cells and incubated at 37° C. or room temperature for 30 or 60 minutes, as appropriate. Final assay vehicle concentration was 1%.

Chain of Nicotinic Acetylcholine Receptor α4β2 (nAchRa4/b2) (P43681 29-627 limits assumed): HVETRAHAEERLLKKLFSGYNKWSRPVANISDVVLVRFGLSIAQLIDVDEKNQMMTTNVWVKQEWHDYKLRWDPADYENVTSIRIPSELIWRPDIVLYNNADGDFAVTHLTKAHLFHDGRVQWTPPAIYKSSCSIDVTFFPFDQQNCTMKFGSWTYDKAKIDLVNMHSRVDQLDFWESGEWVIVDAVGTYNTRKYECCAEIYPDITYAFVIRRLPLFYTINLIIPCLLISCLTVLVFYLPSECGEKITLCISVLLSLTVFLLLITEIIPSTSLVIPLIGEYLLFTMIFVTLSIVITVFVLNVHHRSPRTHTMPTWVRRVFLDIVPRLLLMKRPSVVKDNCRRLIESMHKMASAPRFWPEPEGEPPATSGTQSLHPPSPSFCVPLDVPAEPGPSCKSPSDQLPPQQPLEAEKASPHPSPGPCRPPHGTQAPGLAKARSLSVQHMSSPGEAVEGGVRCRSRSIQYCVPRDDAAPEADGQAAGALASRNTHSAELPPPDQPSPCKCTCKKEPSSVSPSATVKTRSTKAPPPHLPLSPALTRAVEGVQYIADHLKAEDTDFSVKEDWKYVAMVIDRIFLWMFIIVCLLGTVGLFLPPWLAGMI
Chain of Nicotinic Acetylcholine Receptor α4β2 (nAchRa4/b2) (P17787 26-502 limits assumed): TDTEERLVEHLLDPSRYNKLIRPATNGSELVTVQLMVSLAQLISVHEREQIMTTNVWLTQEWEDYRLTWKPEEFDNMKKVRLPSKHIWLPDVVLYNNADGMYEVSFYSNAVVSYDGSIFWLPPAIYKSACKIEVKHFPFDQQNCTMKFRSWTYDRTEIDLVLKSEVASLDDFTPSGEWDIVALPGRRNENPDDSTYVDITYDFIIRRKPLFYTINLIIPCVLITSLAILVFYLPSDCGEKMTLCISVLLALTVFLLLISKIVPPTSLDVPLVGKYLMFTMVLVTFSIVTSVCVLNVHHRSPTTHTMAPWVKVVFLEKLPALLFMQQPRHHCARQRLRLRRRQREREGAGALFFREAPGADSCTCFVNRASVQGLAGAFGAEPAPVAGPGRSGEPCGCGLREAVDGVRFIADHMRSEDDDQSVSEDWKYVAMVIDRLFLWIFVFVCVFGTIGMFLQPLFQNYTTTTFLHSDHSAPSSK

Question: With `CN[C@H](C)Cc1ccc2ccoc2c1` [Compound R-6-MAPB, (R)-1-(benzofuran-6-yl)-N-methylpropan-2-amine] as the compound, how does the pIC50 [1] read?
Answer: 5.13

Question: What about the “Hill Coef.” value (5-HT1BR) of the same compound?
Answer: 1.14

Question: And the EC50 (5-HT1BR; 5-HT1BR EC50 (μM))?
Answer: 1.48 µM

Question: What about the EC50 (5-HT1BR; 5HT1B Agonist (μM)) of the same compound?
Answer: 1.48 µM
